Source: US9315494B2, “Alkyl-amide-substituted pyridyl compounds useful as modulators of IL-12, IL-23 and/or IFNα responses” (Bristol-Myers Squibb Company, priority 2012, dated 2016)

What was measured:
[1] = tested on: IFNα-stimulated STAT-dependent luciferase reporter in Kit225 T cells; test: Kit225 T cell assay, IFNα stimulated STAT-dependent luciferase reporter; assay type: cell-based, human; conditions: Kit225 T cells, 200 U/mL human recombinant IFNα, 5-6 hours, luciferase; read-out: IFNα (Kit225 T Cell Inhibition Data)
Outline: (§1)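 Stimulus was either 200 U/mL human recombinant IFNα or 20 ng/mL IL-23, applied for 5-6 h to reporter-bearing Kit225 T cells grown in RPMI/10% FBS. Luciferase expression then quantified by luminescent assay.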

[2] = tested on: IL-23-stimulated STAT-dependent luciferase reporter in Kit225 T cells; test: Kit225 T cell assay, IL-23 stimulated STAT-dependent luciferase reporter; assay type: cell-based, human; conditions: Kit225 T cells, 20 ng/mL human recombinant IL-23, 5-6 hours, luciferase; read-out: IL23 (Kit225 T Cell Inhibition Data)
Outline: as §1

SMILES | IC50 [1] [nM] | IC50 [2] [nM]
CCOc1cc(F)ccc1Nc1cc(Nc2ccc(N3CCOCC3)cn2)ncc1C(=O)NC [Example 232] | 2090 | 3040
CNC(=O)c1cnc(Nc2ccc(F)cn2)cc1Nc1ccc(C(N)=O)cc1OC [Example 233] | 870 | 1370
CNC(=O)c1cnc(Nc2ccc(F)cn2)cc1Nc1ccc(C(N)=O)cc1C [Example 234] | 1870 | 2800
CNC(=O)c1cnc(Nc2ccc(F)cn2)cc1Nc1ccc(C(=O)N2CCCCC2)cc1C [Example 235] | 700 | 1420
CNC(=O)c1cnc(Nc2ccc(F)cn2)cc1Nc1ccc(C(=O)N2CCOCC2)cc1C [Example 236] | 1110 | 2180
CNC(=O)c1cnc(Nc2ccc(F)cn2)cc1Nc1ccc(C(=O)N2CCCCC2)cc1OC [Example 239] | 230 | 293
CCN(CC)C(=O)c1ccc(Nc2cc(Nc3ccc(F)cn3)ncc2C(=O)NC)c(OC)c1 [Example 240] | 410 | 625
CNC(=O)c1cnc(Nc2ccc(F)cn2)cc1Nc1ccc(C(=O)N2CCOCC2)cc1OC [Example 241] | 500 | 902
CNC(=O)c1cnc(Nc2ccc(F)cn2)cc1Nc1ccc(C(N)=O)cc1 [Example 242] | 2710 | 1740
CNC(=O)c1ccc(Nc2cc(Nc3ccc(F)cn3)ncc2C(=O)NC)cc1 [Example 243] | 2110 | 4610
CNC(=O)c1cnc(Nc2ccc(F)cn2)cc1Nc1ccc(C(=O)N2CCCCC2)cc1 [Example 244] | 1260 | 1160
CNC(=O)c1cnc(Nc2ccc(F)cn2)cc1Nc1ccc(C(=O)N2CCOCC2)cc1 [Example 245] | 3660 | 3260
CCN(CC)C(=O)c1ccc(Nc2cc(Nc3ccc(F)cn3)ncc2C(=O)NC)cc1 [Example 246] | 1650 | 2380
CNC(=O)c1cnc(Nc2ccc(F)cn2)cc1Nc1ccc(C(=O)N2CCC(F)(F)C2)cc1OC [Example 247] | 260 | 409
CNC(=O)c1cnc(Nc2ccc(F)cn2)cc1Nc1ccc(C(=O)N2CCCC2)cc1OC [Example 248] | 250 | 504
CNC(=O)c1cnc(Nc2ccc(F)cn2)cc1Nc1ccc(C(=O)NCCc2c[nH]cn2)cc1OC [Example 249] | 6410 | 10500

SMILES | IC50 [1] [nM] | IC50 [2] [nM]
CNC(=O)c1cnc(Nc2ccc(F)cn2)cc1Nc1ccc(OC)cc1C(N)=O [Example 250] | 300 | 472
CNC(=O)c1cnc(Nc2ccc(F)cn2)cc1Nc1ccccc1C(=O)N(C)C [Example 251] | 670 | 1080
CNC(=O)c1cnc(Nc2ccc(F)cn2)cc1Nc1ccc(OC(F)(F)F)cc1C(N)=O [Example 252] | 430 | 1290
CNC(=O)c1ccnc(Nc2cc(Nc3ccc(Cl)cc3OC)c(C(=O)NC)cn2)c1 [Example 254] | 310 | 488
CNC(=O)c1cnc(Nc2ccc(C(N)=O)cn2)cc1Nc1ccc(Cl)cc1OC [Example 255] | 710 | 1560
CNC(=O)c1cnc(Nc2cc(C(N)=O)ccn2)cc1Nc1ccc(F)c(F)c1OC [Example 256] | 700 | 568
CNC(=O)c1ccnc(Nc2cc(Nc3ccc(F)c(F)c3OC)c(C(=O)NC)cn2)c1 [Example 257] | 600 | 577
CNC(=O)c1cnc(Nc2cc(C(=O)N(C)C)ccn2)cc1Nc1ccc(F)c(F)c1OC [Example 258] | 310 | 646
CNC(=O)c1cnc(Nc2cc(C(=O)NC3CC3)ccn2)cc1Nc1ccc(Cl)cc1OC [Example 259] | 200 | 433
CNC(=O)c1ccc(Nc2cc(Nc3ccc(Cl)cc3OC)c(C(=O)NC)cn2)nc1 [Example 260] | 1760 | 2400
CNC(=O)c1cnc(Nc2ccc(C(=O)N(C)C)cn2)cc1Nc1ccc(Cl)cc1OC [Example 262] | 410 | 727
CNC(=O)c1cnc(Nc2ccc(C(=O)N3CCOCC3)cn2)cc1Nc1ccc(Cl)cc1OC [Example 263] | 3600 | 5060
CNC(=O)c1cnc(Nc2cc(C(N)=O)ccn2)cc1Nc1cc(F)cc(F)c1OC [Example 264] | 350 | 542
CNC(=O)c1cnc(Nc2cc(C(=O)N3CCOCC3)ccn2)cc1Nc1cc(F)cc(F)c1OC [Example 265] | 210 | 319
CNC(=O)c1cnc(Nc2cc(C(N)=O)ccn2)cc1Nc1ccc(F)cc1OC [Example 267] | 1830 | 2640

The remaining lines, values ahead:

IC50 [1] [nM] | IC50 [2] [nM] | SMILES
740 | 785 | CNC(=O)c1cnc(Nc2cc(C(=O)N3CCCC3)ccn2)cc1Nc1ccc(F)cc1OC [Example 268]
900 | 1080 | CNC(=O)c1cnc(Nc2cc(C(=O)N3CCOCC3)ccn2)cc1Nc1ccc(F)cc1OC [Example 269]
170 | 221 | CNC(=O)c1cnc(Nc2cc(C(=O)N3CCCC3)ccn2)cc1Nc1cc(F)cc(F)c1OC [Example 270]
820 | 1180 | CNC(=O)c1cnc(Nc2cc(C(=O)NCCOC)ccn2)cc1Nc1ccc(F)cc1OC [Example 271]
600 | 1060 | CNC(=O)c1cnc(Nc2cc(C(=O)N(C)C)ccn2)cc1Nc1ccc(F)cc1OC [Example 272]
160 | 223 | CNC(=O)c1ccnc(Nc2cc(Nc3cc(F)cc(F)c3OC)c(C(=O)NC)cn2)c1 [Example 273]
190 | 336 | CNC(=O)c1cnc(Nc2cc(C(=O)N(C)C)ccn2)cc1Nc1cc(F)cc(F)c1OC [Example 274]
680 | 1040 | CNC(=O)c1ccnc(Nc2cc(Nc3ccc(F)cc3OC)c(C(=O)NC)cn2)c1 [Example 275]
1170 | 1340 | CNC(=O)c1cnc(Nc2cc(C(N)=O)ccn2)cc1Nc1cccc(F)c1OC [Example 276]
240 | 270 | CNC(=O)c1cnc(Nc2cc(C(=O)N(C)C)ccn2)cc1Nc1cccc(F)c1OC [Example 277]
960 | 374 | CNC(=O)c1cnc(Nc2cc(C(=O)NCC#N)ccn2)cc1Nc1cccc(F)c1OC [Example 278]
140 | 476 | CNC(=O)c1cnc(Nc2ccc(F)cn2)cc1Nc1ccccc1NS(C)(=O)=O [Example 279]
5990 | 5050 | CNC(=O)c1cnc(Nc2ccc(F)cn2)cc1Nc1ccccc1NC(C)=O [Example 280]
140 | 140 | CNC(=O)c1cnc(Nc2cc(C#N)ccn2)cc1Nc1ccccc1NS(C)(=O)=O [Example 281]
3630 | 3000 | CNC(=O)c1cnc(Nc2ccc3ccccc3n2)cc1NC1CCCC1(C)F (stereo not shown) [Example 284]
10200 | 7940 | CNC(=O)c1cnc(Nc2ccc3ccccc3n2)cc1NC1CCC(F)CC1 (stereo not shown) [Example 287]
1310 | 3150 | CNC(=O)c1cnc(Nc2ccc3ccccc3n2)cc1NC1CCCC1C(N)=O (stereo not shown) [Example 288]
6590 | 11400 | CNC(=O)c1cnc(Nc2ccc(C(F)(F)F)cn2)cc1NC1CCCCC1C(N)=O (stereo not shown) [Example 290]
3570 | 3730 | CNC(=O)c1cnc(Nc2ccc(C(F)(F)F)cn2)cc1NC1CCCC1C(N)=O (stereo not shown) [Example 291]
